The text below walks through data of patent publication US20250214977A1, “STAT6 INHIBITORS AND USES THEREOF” (Kymera Therapeutics, Inc., priority 2024, published 2025).

As a reminder, the IC50 is the concentration that gives 50% inhibition.

The subject of the experiment is Phosphorylation of STAT6 in human A549 cells. Nature of the experiment: Phosphorylated STAT6 (pSTAT6) flow cytometry assay in human A549 cells. Type of experiment: cell-based. The following applies: read-out: STAT6 IL4 pSTAT6 assay in A549 cells: Average IC50. An excerpt:
Example 3. Phosphorylated STAT6 (pSTAT6) Flow Cytometry Assay in Human A549 Cells
Phosphorylation of STAT6 in human A549 cells was quantitatively measured using flow cytometry technology.
For `CCc1cc(C)ncc1-c1cc(C2=CCCN(C(=O)CCn3ccnn3)C2)c(F)c2[nH]c(C(=O)N3Cc4cnn(CC)c4C3)cc12` [Example I-529], the IC50 is less than 100 nM. To `COc1cccnc1N1CCN(C(=O)c2cc3c(C4=C(C)CCCC4)cc(C4=CCCN(C(=O)CCn5ccnn5)C4)c(F)c3[nH]2)CC1` [Example I-569] belongs less than 100 nM; to `CCc1ccncc1-c1cc(C2=CCCN(C(=O)CC(=O)O)C2)c(F)c2[nH]c(C(=O)N3CCN(c4ncc(F)cc4OC)CC3)cc12` [Example I-786], less than 100 nM; to `CN(C)C(=O)c1cc2cc(C3=CCCN(C(=O)CCn4ccnn4)C3)cc(NCc3ccccc3C3CC3)c2o1` [Example I-878], less than 100 nM. For `COc1ccccc1-c1cc(C2=CCCN(C(=O)CCn3ccnn3)C2)c(F)c2[nH]c(C(=O)N3CCN(C4CC4)CC3)cc12` [Example I-325], the IC50 is less than 100 nM. Take `COc1cccnc1N1CCN(C(=O)c2cc3c(-c4nc(C)[nH]c4C)cc(C4=CCCN(C(=O)CCn5ccnn5)C4)c(F)c3[nH]2)CC1` [Example I-572]: the IC50 was less than 100 nM. Turning to `COc1cc(F)cnc1N1CCN(C(=O)c2cc3c(-c4ccc(C)c(C#N)c4)cc(C4=CCCN(C(=O)CCn5ccnn5)C4)c(F)c3[nH]2)CC1` [Example I-648], the IC50 was less than 100 nM. With `CC#Cc1cc(-c2cc(C3=CCCN(C(=O)CCn4ccnn4)C3)c(F)c3[nH]c(C(=O)N4CCN(c5ncc(F)cc5OC)CC4)cc23)ccn1` [Example I-634], the IC50 is less than 100 nM.

Turning to `CC(=O)N1CCC=C(c2cc(-c3cncc4ccccc34)c3cc(C(=O)N(C)C)[nH]c3c2F)C1` [Example I-1098], the IC50 was less than 100 nM. Next, `COc1cc(F)cnc1N1CCN(C(=O)c2cc3c(-c4ccc(CN5CCOCC5)nc4)cc(C4=CCCN(C(=O)CCn5ccnn5)C4)c(F)c3[nH]2)CC1` [Example I-1137]: less than 100 nM. To `COc1ccccc1-c1cc(C2=CCCN(C(=O)CCn3ccnn3)C2)c(F)c2[nH]c(C(=O)N3CCN(c4ccccc4OC(F)(F)F)CC3)cc12` [Example I-420] belongs 100 to 1000 nM; to `COc1ccccc1-c1cc(C2=CCCN(C(=O)CCn3ccnn3)C2)c(F)c2[nH]c(C(=O)N3CCN(c4ccc(O)cc4)CC3)cc12` [Example I-867], less than 100 nM. On to `COc1cc(F)cnc1N1CCN(C(=O)c2cc3c(C4CCN(C)CC4)cc(C4=CCCN(C(=O)CCn5ccnn5)C4)c(F)c3[nH]2)CC1` [Example I-725], for which the IC50 is less than 100 nM. For the molecule `COc1cc(F)cnc1N1CCN(C(=O)c2cc3c(-c4cccc(-c5ccncc5)c4)cc(C4=CCCN(C(=O)CCn5ccnn5)C4)c(F)c3[nH]2)CC1` [Example I-626], the IC50 is less than 100 nM. To `COc1ccccc1-c1cc(C2=CCCN(C(=O)CCn3ccnn3)C2)c(F)c2[nH]c(C(=O)N3CCN(c4ncc(F)c(F)c4OC)CC3)cc12` [Example I-510] belongs less than 100 nM. Next, `CCc1cnccc1-c1cc(C2=CCCN(C(=O)CCn3ccnn3)C2)c(F)c2[nH]c(C(=O)N3CCN(c4ncc(OC)cc4OC)CC3)cc12` [Example I-484]: greater than 100000 nM; `CNc1ccc(-c2cc(C3=CCCN(C(C)=O)C3)c(F)c3[nH]c(C(=O)N(C)C)cc23)c(OC)c1` [Example I-1092]: less than 100 nM; `COc1ccccc1-c1cc(C2=CCCN(C(=O)CCn3cccn3)C2)c(F)c2[nH]c(C(=O)N3CCN(c4ncccc4OC4CC4)CC3)cc12` [Example I-345]: less than 100 nM.

As for `COc1cc(F)cnc1N1CCN(C(=O)c2cc3c(-c4ccnc(F)c4OC)cc(C4=CCCN(C(=O)CCn5ccnn5)C4)c(F)c3[nH]2)CC1` [Example I-656], the concentration for half-maximal inhibition (IC50) was less than 100 nM. For the molecule `COc1ccccc1-c1cc(C2=CCCN(C(=O)C3Cc4ccccc4CN3C=O)C2)cc2cc(C(=O)N(C)C)oc12` (centres unmarked) [Example I-838], the IC50 is less than 100 nM. To `COc1ccccc1N1CCN(C(=O)c2cc3c(-c4cccc(F)c4OC)cc(C4=CCCN(C(=O)CCn5ccnn5)C4)c(F)c3[nH]2)CC1` [Example I-567] belongs less than 100 nM. Regarding `COc1ccccc1-c1cc(C2=CCCN(C(=O)CCn3ccnn3)C2)c(F)c2[nH]c(C(=O)N3CCN(c4cn(C)c(=O)c5ccccc45)CC3)cc12` [Example I-905], the IC50 was less than 100 nM.

Consider `CCC1CCCCC1c1cc(C2=CCCN(C(=O)CCn3ccnn3)C2)c(F)c2[nH]c(C(=O)N3CCN(c4ncc(F)cc4OC)CC3)cc12` (single isomer, unassigned) [Example I-1174], for which the half-maximal inhibitory concentration (IC50) lay in the range of 1000 to 10000 nM. `CCC1CCCC=C1c1cc(C2=CCCN(C(=O)CCn3ccnn3)C2)c(F)c2[nH]c(C(=O)N3CCN(c4ncccc4OC)CC3)cc12` (centres unmarked) [Example I-1168]: the IC50 was 100 to 1000 nM. Consider `COc1ccncc1-c1cc(C2=CCCN(C(=O)CCn3ccnn3)C2)c(F)c2[nH]c(C(=O)N3CCN(c4ncc(C(C)C)cc4OC)CC3)cc12` [Example I-454], for which the IC50 is less than 100 nM. To `COc1ccccc1-c1cc(C2=CCCN(C(=O)CCn3ccnn3)C2)c(F)c2[nH]c(C(=O)N3CCN(c4ccc(F)c(F)c4F)CC3)cc12` [Example I-769] belongs less than 100 nM; to `CN(C)C(=O)c1ccc2c(c1)cc(C1=CCCN(C(=O)CCn3ccnn3)C1)n2CC1CC1` [Example I-1096], less than 100 nM. To `CN(C)C(=O)c1cc2cc(C3=CCCN(C(=O)CCn4ccnn4)C3)cc(NCc3ccc(C#N)cc3)c2o1` [Example I-895] belongs less than 100 nM.

On to `COc1ccccc1-c1cc(C2=CCCN(C(=O)CCn3ccnn3)C2)c(F)c2[nH]c(C(=O)N3CCC(OC4CCC4)CC3)cc12` [Example I-984], for which the IC50 was less than 100 nM. Next, `COc1ccccc1-c1cc(C2=CCCN(C(=O)CCn3ccnn3)C2)c(F)c2[nH]c(C(=O)N3Cc4c(C)nn(C)c4C3)cc12` [Example I-509]: less than 100 nM; `CCc1ccc(-c2cc(C(=O)N3Cc4cnn(CC)c4C3)cc3cc(C4=CCCN(C(C)=O)C4)n(CC4CC4)c23)c(C)n1` [Example I-1046]: 100 to 1000 nM; `O=C(CCn1ccnn1)N1CCC=C(c2cc(-c3ccccc3F)c3cc(C(=O)N4CCN(c5ncccc5OC5CC5)CC4)[nH]c3c2F)C1` [Example I-343]: less than 100 nM.

For `Cc1c[nH]c2ncc(-c3cc(C4=CCCN(C(=O)CCn5ccnn5)C4)c(F)c4[nH]c(C(=O)N(C)C)cc34)cc12` [Example I-1101], the IC50 was less than 100 nM. Next, `COc1cc(F)cnc1N1CCN(C(=O)c2cc3c(-c4ccc(-c5ccncc5)cc4)cc(C4=CCCN(C(=O)CCn5ccnn5)C4)c(F)c3[nH]2)CC1` [Example I-1118]: less than 100 nM. For `CCc1nc(C)ccc1-c1cc(C(=O)N2CCN(c3nc(C)c(F)cc3OC)CC2)cc2cc(C3=CCCN(C(=O)CC(=O)O)C3)n(CC3CC3)c12` [Example I-792], the IC50 is less than 100 nM.

`COc1cnccc1-c1cc(C2=CCCN(C(C)=O)C2)c(F)c2[nH]c(C(=O)N3CCN(c4ncccc4OC)CC3)cc12` [Example I-408]: the IC50 was greater than 100000 nM.

As to `CCCCOc1ccc(-c2cc(C3=CCCN(C(=O)CCn4ccnn4)C3)c(F)c3[nH]c(C(=O)N4CCN(c5ncc(F)cc5OC)CC4)cc23)cc1` [Example I-1127], the IC50 is 100 to 1000 nM.

In the case of `COc1ccccc1-c1cc(C2=CCCN(C(=O)CCn3ccnn3)C2)c(F)c2[nH]c(C(=O)N3CCCN(c4ccc(F)cn4)CC3)cc12` [Example I-850], the IC50 was less than 100 nM. To `COc1cc(F)cnc1N1CCN(C(=O)c2cc3c(-c4ccc5nn(C)cc5c4)cc(C4=CCCN(C(=O)CCn5ccnn5)C4)c(F)c3[nH]2)CC1` [Example I-624] belongs less than 100 nM; to `CCOc1cccnc1N1CCN(C(=O)c2cc3c(-c4ccccc4OC)cc(C4=CCCN(C(=O)CCn5ccnn5)C4)c(F)c3[nH]2)CC1` [Example I-335], less than 100 nM; to `COc1ccccc1-c1cc(C2=CCCN(C(=O)CCn3ccnn3)C2)c(F)c2[nH]c(C(=O)N3CCN(c4nc5ccccc5nc4C)CC3)cc12` [Example I-339], less than 100 nM. In the case of `COc1ccccc1-c1cc(C2=CCCN(C(=O)CCn3ccnn3)C2)c(F)c2[nH]c(C(=O)N3CCN(c4ncccc4C4CC4)CC3)cc12` [Example I-495], the IC50 was greater than 100000 nM. Next, `COc1ccncc1-c1cc(C2=CCCN(C(=O)CCn3ccnn3)C2)c(F)c2[nH]c(C(=O)N3CCN(c4ccccn4)C(C)C3)cc12` (centres unmarked) [Example I-568]: less than 100 nM. Next, `COc1ccncc1-c1cc(C2=CCCN(C(=O)CCn3ccnn3)C2)c(F)c2[nH]c(C(=O)N3CCN(c4ncc(C(F)(F)F)cc4OC)CC3)cc12` [Example I-445]: less than 100 nM; `COc1cc(F)cnc1N1CCN(C(=O)c2cc3c(-c4ccnc(N5CCOCC5)c4)cc(C4=CCCN(C(=O)CCn5ccnn5)C4)c(F)c3[nH]2)CC1` [Example I-680]: less than 100 nM. Next, `CN(C)C(=O)c1cc2cc(C3=CCCN(C(=O)CCn4ccnn4)C3)cc(-c3ccc4cncnc4c3)c2o1` [Example I-1089]: less than 100 nM; `COc1ccccc1-c1cc([C@H]2CCCN(C(=O)CCn3ccnn3)C2)c(F)c2[nH]c(C(=O)N(C)C)cc12` [Example I-1195]: greater than 100000 nM; `COc1ccccc1-c1cc(C2=CCCN(C(=O)CCn3ccnn3)C2)c(F)c2[nH]c(C(=O)N3CCN(C(C)(C)C)CC3)cc12` [Example I-773]: less than 100 nM. Regarding `COc1ccccc1-c1cc(C2=CCCN(C(=O)[C@H]3Cc4ccccc4CN3C=O)C2)cc2cc(C(=O)N(C)C)oc12` [Example I-839], the IC50 is less than 100 nM. Next, `COc1ccccc1-c1cc(C2=CCCN(C(=O)CCn3ccnn3)C2)c(F)c2[nH]c(C(=O)N3CCN(c4cn(C)c5ncncc45)CC3)cc12` [Example I-1016]: less than 100 nM. Next, `COc1cc(F)cnc1N1CCN(C(=O)c2cc3c(-c4ccc(C5CC5)cc4)cc(C4=CCCN(C(=O)CCn5ccnn5)C4)c(F)c3[nH]2)CC1` [Example I-1157]: less than 100 nM. In the case of `COc1ccccc1-c1cc(C2=CCCN(C(=O)CCn3ccnn3)C2)c(F)c2[nH]c(C(=O)N3CCN(c4ccn(C)n4)CC3)cc12` [Example I-933], the IC50 was less than 100 nM.

As to `C[C@H](Cn1ccnn1)C(=O)N1CCC=C(c2ccc3oc(C(=O)N(C)C)cc3c2)C1` (single isomer, unassigned) [Example I-818], the IC50 was 100 to 1000 nM.
